# Test results reported in patent US20230265068A1, “TRANSIENT RECEPTOR POTENTIAL CANONICAL 3 INHIBITORS AND METHODS OF USE THEREOF” (University of Tennessee Research Foundation, priority 2020, published 2023).
# What was measured:
# hippocampal neurons = assay: neuroprotection against Aβ-containing conditioned medium (7PA2) in primary hippocampal neurons; type: cell-based, rat; conditions: 14 DIV neurons, 7PA2 medium, 16 hours, different concentrations
# Procedure: To visualize dendritic spines, 14 DIV hippocampal neurons at low density (5,000 cells per 35 mm dish) were exposed to 7PA2 conditioned media (CM), which contains naturally secreted Aβ, or CHO control media or for 16 h, with or without cotreatment with the two inhibitor compounds, followed by immunocytochemistry with MAP2 and DAPI counterstaining.
# To explore the potential biological effects of compound 22 in a TRPC3 related disease model, its neuroprotective ability in primary cultured neurons (14 DIV prepared from E17 rats as described) was evaluated. The effects on neuron dendritic morphology were measured by imaging. Mature hippocampal neurons (DIV=14) were treated with CHO control medium, or naturally secreted Aβ-containing conditioned medium (7PA2), or in combination with compound 22 or Pyr3 at different concentrations, for 16 hours, followed by immunocytochemistry using an antibody against MAP2 and DAPI (data not shown). […] Hippocampal neurons (DIV=14) were treated with compound 22 or Pyr3 alone at different concentrations, followed by immunocytochemistry staining with MAP2 and DAPI (data not shown).
# TRPC3 = molecular target: T1, TRPC3 (Homo sapiens, UniProt Q13507); assay: LC-MS detection of compound bound to affinity-purified TRPC3 protein after size-exclusion chromatography; type: binding; set-up: made in house; conditions: 1 h incubation, free compound removed
# T1 sequence (Q13507 1-921): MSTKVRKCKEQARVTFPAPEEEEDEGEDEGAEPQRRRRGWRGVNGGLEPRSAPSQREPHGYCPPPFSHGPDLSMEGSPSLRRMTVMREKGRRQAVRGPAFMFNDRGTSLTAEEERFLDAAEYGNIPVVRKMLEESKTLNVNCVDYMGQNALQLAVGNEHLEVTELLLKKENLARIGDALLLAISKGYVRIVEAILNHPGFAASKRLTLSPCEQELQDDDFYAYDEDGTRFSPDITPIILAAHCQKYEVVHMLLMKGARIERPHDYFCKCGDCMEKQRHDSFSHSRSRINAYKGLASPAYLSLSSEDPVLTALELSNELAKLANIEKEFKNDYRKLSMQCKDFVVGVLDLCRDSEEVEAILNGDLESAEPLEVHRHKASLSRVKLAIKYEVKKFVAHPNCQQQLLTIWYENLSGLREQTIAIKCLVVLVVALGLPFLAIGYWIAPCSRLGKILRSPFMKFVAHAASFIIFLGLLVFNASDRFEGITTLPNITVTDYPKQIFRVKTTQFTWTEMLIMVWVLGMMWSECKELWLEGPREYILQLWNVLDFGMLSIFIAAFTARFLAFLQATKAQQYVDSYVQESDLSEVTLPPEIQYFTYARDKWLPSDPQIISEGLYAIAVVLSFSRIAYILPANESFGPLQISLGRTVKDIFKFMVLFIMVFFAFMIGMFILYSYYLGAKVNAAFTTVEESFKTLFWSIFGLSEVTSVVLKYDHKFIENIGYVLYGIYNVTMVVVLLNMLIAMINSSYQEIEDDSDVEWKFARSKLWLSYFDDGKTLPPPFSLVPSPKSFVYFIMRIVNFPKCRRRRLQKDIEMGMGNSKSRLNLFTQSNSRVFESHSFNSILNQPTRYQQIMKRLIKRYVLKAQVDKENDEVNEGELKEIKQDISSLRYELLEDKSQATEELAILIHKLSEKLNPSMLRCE
# Procedure: LC-MS technique was employed to find some evidence of the on-target engagement of compound 22 with TRPC3. Biochemical quantities of affinity-purified TRPC3 protein was successfully generated before and was confirmed by SDS-PAGE.21 After incubation of compound 22 with TRPC3 protein for 1 h, repeated size-exclusion chromatography was used to completely remove free compound 22 from the protein-bound fraction. Methanol was then added to this complex to denature the protein and extract the bound compound.
compound,measurement,setting,value
CCNC(=O)c1cnn(-c2ccc(-n3ccc(Cl)c(Cl)c3=O)cc2)c1C(F)(F)F [Compound 22],protection against Aβ-induced damage to dendrites (MAP2/DAPI),hippocampal neurons,protect against Aβ-induced damage to dendrites
same,binding to TRPC3 protein (compound detected by LC-MS in extract of purified complex),TRPC3,direct binding
